Results published in US20250084091A1, “INHIBITORS OF SARS-COV-2” (The Texas A&M University System, priority 2021, published 2025).
Like-named read-outs stand apart in the source and are kept apart here.

How the values were obtained:
[1] = biological target: SARS-CoV-2 main protease (Mpro) (Severe acute respiratory syndrome coronavirus 2, UniProt P0DTD1); test: biochemical; details: for inhibition at 20 µM: read-out: Enzyme inhibition @ 20 uM
[2] = tested on: SARS-CoV-2 (strain USA-WA1/2020); test: microbe, parasite or virus in culture; assay type: cell-based
[3] = Table 3, select example compounds against mpro, read-out: Enzyme IC50
[4] = Severe acute respiratory syndrome coronavirus 2, HeLa, Table 3, read-out: CoV-2 HeLa EC50

| Compound | IC50 ([1]; Table 2, read-out: Enzyme IC50) [nM] | also measured |
| --- | --- | --- |
| O=C(C1CNCCO1)N1CCN(C(c2ccccc2)c2ccccc2)CC1 (stereo not drawn) [AA-582, (4-benzhydrylpiperazin-1-yl)(morpholin-2-yl)methanone] | – | inhibition at 20 µM [1]: 60% |
| Cc1cncc(CN2CCN(C(c3ccccc3)c3ccccc3)CC2=O)c1 [AA-646, 4-benzhydryl-1-((5-methylpyridin-3-yl)methyl)piperazin-2-one] | 6100 | EC50 ([2]; Severe acute respiratory syndrome coronavirus 2, Table 2, SARS-CoV-2 infected HeLa-ACE2 cells, read-out: CoV-2 HeLa EC50): 5200 nM |
| O=C(c1cncc2cc[nH]c12)N1CC2CCC(C1)N2C(c1cccc(F)c1)c1cccc(F)c1 [AA-663, [8-[bis(3-fluorophenyl)methyl]-3,8-diazabicyclo[3.2.1]octan-3-yl]-(1H-pyrrolo[3,2-c]pyridin-7-yl)methanone] | – | IC50 ([1]; Enzyme IC50, Table 2): 38 nM; IC50 ([1]; Enzyme IC50, Table 3, select example compounds against mpro): 14 nM; EC50 ([2]; Severe acute respiratory syndrome coronavirus 2, HeLa, read-out: CoV-2 HeLa EC50, Table 3): 63 nM |
| O=C(c1cncc2cc[nH]c12)N1CCC(N(c2ccccc2)c2ccccc2)CC1 [AA-667, [4-(N-phenylanilino)-1-piperidyl]-(1H-pyrrolo[3,2-c]pyridin-7-yl)methanone] | 3320 | – |
| O=C(c1cnccn1)N1CCN(C(c2ccccc2)c2cccnc2)CC1 (stereo not drawn) [MKP-1188, 2-{4-[phenyl(pyridin-3-yl)methyl]piperazine-1-carbonyl}pyrazine] | – | inhibition at 20 µM [1]: 50% |
| O=C(c1cncnc1)N1CCN(C(c2ccccc2)c2cccnc2)CC1 (stereo not drawn) [MKP-1189, 5-{4-[phenyl(pyridin-3-yl)methyl]piperazine-1-carbonyl}pyrimidine] | – | inhibition at 20 µM [1]: 60% |
| O=C(c1cncc(Br)c1)N1CCN(C(c2ccccc2)c2cccnc2)CC1 (stereo not drawn) [MKP-1200, 1-(5-bromopyridine-3-carbonyl)-4-[phenyl(pyridin-3-yl)methyl]piperazine] | 320 | – |
| COc1cccc(C(c2ccccc2)N2CCN(C(=O)c3cccnc3)CC2)c1 (stereo not drawn) [MKP-1203, 1-[(3-methoxyphenyl)(phenyl)methyl]-4-(pyridine-3-carbonyl)piperazine] | 2800 | – |
| COc1cccc(C(c2ccccc2)N2CCN(C(=O)c3cncc(Cl)c3)CC2)c1 (stereo not drawn) [MKP-1205, 1-(5-chloropyridine-3-carbonyl)-4-[(3-methoxyphenyl)(phenyl)methyl] piperazine] | 550 | – |
| Cc1cncc(C(=O)N2CCC(=C(c3cccc(F)c3)c3cccc(F)c3)CC2)c1 [MKP-1349, (4-(bis(3-fluorophenyl)methylene)piperidin-1-yl)(5-methylpyridin-3-yl)methanone] | 42 | – |
| O=C(c1cncc2cc[nH]c12)N1CCC(=C(c2cccc(F)c2)c2cccc(F)c2)CC1 [MKP-1355, (4-(bis(3-fluorophenyl)methylene)piperidin-1-yl)(1H-pyrrolo[3,2-c]pyridin-7-yl)methanone] | 28 | IC50 [1, 3]: 12 nM; EC50 [2, 4]: 94 nM |
| Cc1cncc(C(=O)N2CCC(=C(c3ccc(F)cc3)c3cccc(F)c3)CC2)c1 [MKP-1359, (4-((3-fluorophenyl)(4-fluorophenyl)methylene)piperidin-1-yl)(5-methylpyridin-3-yl)methanone] | 44 | – |
| Cc1cncc(C(=O)N2CCC(=C(c3ccccc3)c3cccc(F)c3)CC2)c1 [MKP-1360, (4-((3-fluorophenyl)(phenyl)methylene)piperidin-1-yl)(5-methylpyridin-3-yl)methanone] | 35 | – |
| O=C(c1cncc2cc[nH]c12)N1CCN(C(c2cccc(F)c2)c2cccc(F)c2)CC1 [MKP-1371, (4-(bis(3-fluorophenyl)methyl)piperazin-1-yl)(1H-pyrrolo[3,2-c]pyridin-7-yl)methanone] | 25 | IC50 [1, 3]: 13 nM; EC50 [2, 4]: 47 nM |
| Cc1cncc(C(=O)N2CCC(=C(c3cccc(O)c3)c3cccc(O)c3)CC2)c1 [MKP-1381, (4-(bis(3-hydroxyphenyl)methylene)piperidin-1-yl)(5-methylpyridin-3-yl)methanone] | 94 | – |
| Cc1cncc(C(=O)N2CCC(=C(c3cccnc3)c3cccc(O)c3)CC2)c1 [MKP-1392, (4-((3-hydroxyphenyl)(pyridin-3-yl)methylene)piperidin-1-yl)(5-methylpyridin-3-yl)methanone] | 93 | – |
| Cc1cncc(C(=O)N2CCC(=C(c3ccccc3)c3ccncc3)CC2)c1 [MKP-1398, (5-methylpyridin-3-yl)(4-(phenyl(pyridin-4-yl)methylene)piperidin-1-yl)methanone] | 580 | – |
| Cc1cncc(C(=O)N2CCC(=C(c3ccccc3)c3ccccn3)CC2)c1 [MKP-1400, (5-methylpyridin-3-yl)(4-(phenyl(pyridin-2-yl)methylene)piperidin-1-yl)methanone] | 74 | – |
| Cc1cncc(C(=O)N2CCC(N(c3cccc(F)c3)c3cccc(F)c3)CC2)c1 [MKP-1404, (4-(bis(3-fluorophenyl)amino)piperidin-1-yl)(5-methylpyridin-3-yl)methanone] | 2660 | – |

| Compound | IC50 ([1]; Table 2, read-out: Enzyme IC50) [nM] | also measured |
| --- | --- | --- |
| O=C(c1cncc2cc[nH]c12)N1CCC(=C(c2cccc(O)c2)c2cccc(O)c2)CC1 [MKP-1410, (4-(bis(3-hydroxyphenyl)methylene)piperidin-1-yl)(1H-pyrrolo[3,2-c]pyridin-7-yl)methanone] | 41 | – |
| Cc1cncc(C(=O)N2CCN(C(c3ccccc3)c3ccccn3)CC2)c1 (stereo not drawn) [MKP-1416, (5-methylpyridin-3-yl)(4-(phenyl(pyridin-2-yl)methyl)piperazin-1-yl)methanone] | 176 | – |
| Cc1cncc(C(=O)N2CCC(=C(c3ccccc3)C3CCCCC3)CC2)c1 [MKP-1421, (4-(cyclohexyl(phenyl)methylene)piperidin-1-yl)(5-methylpyridin-3-yl)methanone] | 920 | – |
| Cc1cncc(C(=O)N2CCC(=C(c3ccccn3)c3ccccn3)CC2)c1 [MKP-1422, (4-(di(pyridin-2-yl)methylene)piperidin-1-yl)(5-methylpyridin-3-yl)methanone] | 110 | – |
| COc1ccccc1C(=C1CCN(C(=O)c2cncc(C)c2)CC1)c1ccccn1 [MKP-1440, (4-((2-methoxyphenyl)(pyridin-2-yl)methylene)piperidin-1-yl)(5-methylpyridin-3-yl)methanone] | 170 | – |
| Cc1cncc(C(=O)N2CCN(C(c3ccccc3)c3ccncc3)CC2)c1 (stereo not drawn) [MKP-1442, (5-methylpyridin-3-yl)(4-(phenyl(pyridin-4-yl)methyl)piperazin-1-yl)methanone] | 1600 | – |
| O=C1CN(C(=O)N2CCN(C3c4ccccc4CS(=O)(=O)c4ccccc43)CC2)c2ccccc2N1 (stereo not drawn) [NZ-812, 4-[4-(5,5-dioxo-6,11-dihydrobenzo[c][1]benzothiepin-11-yl)piperazine-1-carbonyl]-1,3-dihydroquinoxalin-2-one] | 550 | – |
| CS(=O)(=O)c1ccccc1C(c1ccccc1)N1CCN(C(=O)c2cncc3cc[nH]c23)CC1 (stereo not drawn) [NZ-814, [4-[(2-methylsulfonylphenyl)-phenyl-methyl]piperazin-1-yl]-(1H-pyrrolo[3,2-c]pyridin-7-yl)methanone] | 53 | – |
| O=C1Nc2ccccc2C(N2CCN(C(=O)c3cncc4cc[nH]c34)CC2)c2ccccc21 (stereo not drawn) [NZ-815, 11-[4-(1H-pyrrolo[3,2-c]pyridine-7-carbonyl)piperazin-1-yl]-5,11-dihydrobenzo[c][1]benzazepin-6-one] | 30 | IC50 [1, 3]: 30 nM; EC50 [2, 4]: 97 nM |
| CS(=O)(=O)c1ccccc1C(c1cccc(F)c1)N1CCN(C(=O)c2cncc3cc[nH]c23)CC1 (stereo not drawn) [NZ-816, [4-[(3-fluorophenyl)-(2-methylsulfonylphenyl)methyl]piperazin-1-yl]-(1H-pyrrolo[3,2-c]pyridin-7-yl)methanone] | 30 | IC50 [1, 3]: 17 nM; EC50 [2, 4]: 40 nM |
| Cc1cncc(C(=O)N2CCN(C(c3cccc(F)c3)c3ccccc3S(C)(=O)=O)CC2)c1 (stereo not drawn) [NZ-817, [4-[(3-fluorophenyl)-(2-methylsulfonylphenyl)methyl]piperazin-1-yl]-(5-methyl-3-pyridyl)methanone] | 33 | – |
| Cc1cc(C(=O)N2CCN(C3c4ccccc4CS(=O)(=O)c4ccccc43)CC2)cnc1N (stereo not drawn) [NZ-819, (6-amino-5-methyl-3-pyridyl)-[4-(5,5-dioxo-6,11-dihydrobenzo[c][1]benzothiepin-11-yl)piperazin-1-yl]methanone] | 20000 | – |
| CC(=O)Nc1ncc(C(=O)N2CCN(C3c4ccccc4CS(=O)(=O)c4ccccc43)CC2)cc1C (stereo not drawn) [NZ-820, N-[5-[4-(5,5-dioxo-6,11-dihydrobenzo[c][1]benzothiepin-11-yl)piperazine-1-carbonyl]-3-methyl-2-pyridyl]acetamide] | > 80000 | – |
| O=C(c1cncc2cn[nH]c12)N1CCC(=C2c3ccccc3CS(=O)(=O)c3ccccc32)CC1 [NZ-821, [4-(5,5-dioxo-6H-benzo[c][1]benzothiepin-11-ylidene)-1-piperidyl]-(1H-pyrazolo[4,3-c]pyridin-7-yl)methanone] | 44 | IC50 [1, 3]: 44 nM; EC50 [2, 4]: 23 nM |
| O=C1Nc2ccc(F)cc2C1CC(=O)N1CCN(C(c2ccccc2)c2ccccc2)CC1 (stereo not drawn) [PKJ-663, 3-(2-(4-benzhydrylpiperazin-1-yl)-2-oxoethyl)-5-fluoroindolin-2-one] | > 80000 | – |
| Cc1cncc(C(=O)C2CCN(C(c3ccccc3)c3ccccc3)CC2=O)c1 (stereo not drawn) [PKJ-672, 1-benzhydryl-4-(5-methylnicotinoyl)piperidin-3-one] | 760 | – |
| CC(C)(C)OC(=O)NCc1cncc(C(=O)N2CCN(C(c3ccccc3)c3ccccc3)CC2)c1 [PKJ-703, tert-butyl ((5-(4-benzhydrylpiperazine-1-carbonyl)pyridin-3-yl)methyl)carbamate] | 930 | – |
| NCc1cncc(C(=O)N2CCN(C(c3ccccc3)c3ccccc3)CC2)c1 [PKJ-704, (5-(aminomethyl)pyridin-3-yl)(4-benzhydrylpiperazin-1-yl)methanone] | 1600 | – |
| O=C(c1cnccc1Cl)N1CCN(C2c3ccccc3CCc3ccccc32)CC1 [ZS-331, (4-chloro-3-pyridyl)-[4-(2-tricyclo[9.4.0.03,8]pentadeca-1(11),3(8),4,6,12,14-hexaenyl)piperazin-1-yl]methanone] | 370 | – |
